Reference: patent US20240158392A1 (Janssen Biotech, Inc., priority 2021, published 2024)
pIC50: −log10 of the molar value.

target: SIK2 (Homo sapiens, UniProt Q9H0K1); assay: SIK2 Enzymatic Assay High Version 2 (High ATP); format: biochemical; conditions: not given
Summary of the method: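 At room temperature, enzyme (6 nM, 2× final) was preincubated with compound for 30 min, then 6 mM ATP and 400 μM HDAC5tide (both 2× final) were added for 2 h. ADP formed was measured by ADP-Glo Max (2 h reagent, 1 h detection) using luminescence.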

Sequence of SIK2 (Q9H0K1 whole entry, species assumed): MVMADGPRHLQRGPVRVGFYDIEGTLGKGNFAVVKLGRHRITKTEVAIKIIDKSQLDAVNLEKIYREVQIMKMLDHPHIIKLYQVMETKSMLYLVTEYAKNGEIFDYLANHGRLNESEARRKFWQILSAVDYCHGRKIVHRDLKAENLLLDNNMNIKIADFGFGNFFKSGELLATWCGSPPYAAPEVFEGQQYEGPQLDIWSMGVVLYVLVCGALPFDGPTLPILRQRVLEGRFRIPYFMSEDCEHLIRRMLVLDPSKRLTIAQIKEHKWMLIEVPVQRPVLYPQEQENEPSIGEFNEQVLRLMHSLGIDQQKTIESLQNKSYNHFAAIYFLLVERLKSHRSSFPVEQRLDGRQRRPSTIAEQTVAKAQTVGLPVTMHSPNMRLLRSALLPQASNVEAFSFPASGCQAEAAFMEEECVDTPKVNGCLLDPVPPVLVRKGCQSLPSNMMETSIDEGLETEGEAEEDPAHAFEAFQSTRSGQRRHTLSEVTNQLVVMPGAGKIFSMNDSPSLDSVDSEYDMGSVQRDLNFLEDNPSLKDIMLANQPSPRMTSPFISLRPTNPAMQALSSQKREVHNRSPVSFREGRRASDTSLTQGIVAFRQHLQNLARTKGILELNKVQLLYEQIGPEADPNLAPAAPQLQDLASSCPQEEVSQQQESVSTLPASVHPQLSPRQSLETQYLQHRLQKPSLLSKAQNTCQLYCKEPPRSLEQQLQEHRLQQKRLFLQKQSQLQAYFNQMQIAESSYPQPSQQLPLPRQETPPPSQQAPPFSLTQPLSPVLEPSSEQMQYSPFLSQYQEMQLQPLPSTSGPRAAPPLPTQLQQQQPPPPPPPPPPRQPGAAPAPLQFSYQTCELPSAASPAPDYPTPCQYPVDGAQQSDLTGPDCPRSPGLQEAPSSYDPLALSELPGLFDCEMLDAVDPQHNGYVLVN

| Structure (SMILES) | pIC50 |
| --- | --- |
| Cc1cc(-c2ccn3nc(Nc4ccc(C(F)(F)F)cn4)cc3c2)c(O[C@H]2C[C@H]3COC[C@@H](C2)N3C)cn1 [Example 411, 5-[2-methyl-5-[[(1S,5R,7s)-9-methyl-3-oxa-9-azabicyclo[3.3.1]nonan-7-yl]oxy]-4-pyridyl]-N-[5-(trifluoromethyl)-2-pyridyl]pyrazolo[1,5-a]pyridin-2-amine] | 8.82 |
| CC(=O)N1[C@@H]2COC[C@H]1C[C@@H](Oc1cnc(C)cc1-c1ccn3nc(Nc4cc(C(F)(F)F)ccn4)cc3c1)C2 [Example 632, 1-((1R,5S,7s)-7-((6-methyl-4-(2-((4-(trifluoromethyl)pyridin-2-yl)amino)pyrazolo[1,5-a]pyridin-5-yl)pyridin-3-yl)oxy)-3-oxa-9-azabicyclo[3.3.1]nonan-9-yl)ethan-1-one] | 8.92 |
| CNC(=O)c1ccc(Nc2cc3cc(-c4cc(C)ncc4O[C@H]4C[C@H]5COC[C@@H](C4)N5C(C)=O)ccn3n2)nc1 [Example 356, 6-[[5-[5-[[(1S,5R)-9-acetyl-3-oxa-9-azabicyclo[3.3.1]nonan-7-yl]oxy]-2-methyl-4-pyridyl]pyrazolo[1,5-a]pyridin-2-yl]amino]-N-methyl-pyridine-3-carboxamide] | > 9.07 |
| CCNC(=O)c1ccc(Nc2cc3cc(-c4cc(C)ncc4O[C@H]4C[C@H]5COC[C@@H](C4)N5)ccn3n2)nn1 [Example 385, N-ethyl-6-[[5-[2-methyl-5-[[(1S,5R,7s)-3-oxa-9-azabicyclo[3.3.1]nonan-7-yl]oxy]-4-pyridyl]pyrazolo[1,5-a]pyridin-2-yl]amino]pyridazine-3-carboxamide] | 8.92 |
| Cc1cc(-c2ccn3nc(Nc4cc(C)nc(C)n4)cc3c2)c(OCC2CCS(=O)(=O)N2)cn1 (racemic) [Example 353, (rac-)-N-(2,6-dimethylpyrimidin-4-yl)-5-[5-[(1,1-dioxo-1,2-thiazolidin-3-yl)methoxy]-2-methyl-4-pyridyl]pyrazolo[1,5-a]pyridin-2-amine] | 7.35 |
| CNC(=O)c1ccc(Nc2cc3cc(-c4cc(C)ncc4O[C@H]4C[C@H]5COC[C@@H](C4)N5CC(C)(C)O)ccn3n2)nc1 [Example 532, 6-[[5-[5-[[(1S,5R)-9-(2-hydroxy-2-methyl-propyl)-3-oxa-9-azabicyclo[3.3.1]nonan-7-yl]oxy]-2-methyl-4-pyridyl]pyrazolo[1,5-a]pyridin-2-yl]amino]-N-methyl-pyridine-3-carboxamide] | 7.87 |
| Cc1cc(-c2ccn3nc(Nc4cc(C)nc(C)n4)cc3c2)c(OC[C@@H]2CCN2C)cn1 [Example 521, N-(2,6-dimethylpyrimidin-4-yl)-5-[2-methyl-5-[[(2S)-1-methylazetidin-2-yl]methoxy]-4-pyridyl]pyrazolo[1,5-a]pyridin-2-amine] | 7.22 |

same assay, conditions: enzyme 6 nM, 6 mM ATP and 400 μM HDAC5tide (each 2× final concentration); 30 minutes pre-incubation, 2 hours; ADP-Glo Max luminescence; read-out: SIK2 high ATP IC50 (μM) (Test Example 2)

| Structure (SMILES) | IC50 [µM] |
| --- | --- |
| Cc1cc(-c2ccn3nc(Nc4cc(C)nc(C)n4)cc3c2)c(OC[C@H]2CC3(CCC3)CO2)cn1 (single isomer, unassigned) [Example 607, (*R)—N-(2,6-dimethylpyrimidin-4-yl)-5-[2-methyl-5-(7-oxaspiro[3.4]octan-6-ylmethoxy)-4-pyridyl]pyrazolo[1,5-a]pyridin-2-amine] | 0.1 |
| Cc1cc(-c2ccn3nc(Nc4ccc(C)nn4)cc3c2)c(OCC(C)(C)O)cn1 [Example 612, 2-methyl-1-[[6-methyl-4-[2-[(6-methylpyridazin-3-yl)amino]pyrazolo[1,5-a]pyridin-5-yl]-3-pyridyl]oxy]propan-2-ol] | 0.115 |
| Cc1cc(-c2ccn3nc(Nc4ccc5nccn5n4)cc3c2)c(OCC(C)(C)O)cn1 [Example 260, 1-[[4-[2-(imidazo[1,2-b]pyridazin-6-ylamino)pyrazolo[1,5-a]pyridin-5-yl]-6-methyl-3-pyridyl]oxy]-2-methyl-propan-2-ol] | 0.0183 |
| CN1CC(Oc2cnc(Cl)cc2-c2ccn3nc(NC(=O)C4CC4)cc3c2)C1 [Example 491, N-[5-[2-chloro-5-(1-methylazetidin-3-yl)oxy-4-pyridyl]pyrazolo[1,5-a]pyridin-2-yl]cyclopropanecarboxamide] | 0.0152 |
| Cc1cc(-c2ccn3nc(NC(=O)C4CC4)cc3c2)c(OCC2(O)CCNC2)cn1 (single isomer, unassigned) [Example 223, (*R)—N-[5-[5-[(3-hydroxypyrrolidin-3-yl)methoxy]-2-methyl-4-pyridyl]pyrazolo[1,5-a]pyridin-2-yl]cyclopropanecarboxamide] | 0.0278 |
| Cc1cc(Nc2cc3cc(-c4cc(C#N)ccc4O[C@H]4CC[C@H](O)CC4)ccn3n2)nc(C)n1 [Example 483, 3-[2-[(2,6-dimethylpyrimidin-4-yl)amino]pyrazolo[1,5-a]pyridin-5-yl]-4-(4-hydroxycyclohexoxy)benzonitrile] | 0.0443 |
| CNc1nc(C)cc(Nc2cc3cc(-c4cc(OC(F)F)ncc4OCC(C)(C)C#N)ccn3n2)n1 [Example 676, 3-[[6-(difluoromethoxy)-4-[2-[[6-methyl-2-(methylamino)pyrimidin-4-yl]amino]pyrazolo[1,5-a]pyridin-5-yl]-3-pyridyl]oxy]-2,2-dimethyl-propanenitrile] | 0.108 |
| Cc1cc(-c2ccn3nc(Nc4nn(C)c5ccccc45)cc3c2)c(OC[C@H]2OCC[C@@H]2O)cn1 [Example 299, (2R,3S)-2-[[6-methyl-4-[2-[(1-methylindazol-3-yl)amino]pyrazolo[1,5-a]pyridin-5-yl]-3-pyridyl]oxymethyl]tetrahydrofuran-3-ol] | 0.00675 |
| CC#Cc1cc(-c2ccn3nc(NC(=O)C4CC4)cc3c2)c(OC[C@@H]2CNCCO2)cn1 [Example 443, N-[5-[5-[[(2S)-morpholin-2-yl]methoxy]-2-prop-1-ynyl-4-pyridyl]pyrazolo[1,5-a]pyridin-2-yl]cyclopropanecarboxamide] | 0.00436 |
| Cc1cc(Nc2cc3cc(-c4cc(OCCF)ncc4OCC(C)(C)C#N)ccn3n2)nc(C)n1 [Example 673, 3-[[4-[2-[(2,6-dimethylpyrimidin-4-yl)amino]pyrazolo[1,5-a]pyridin-5-yl]-6-(2-fluoroethoxy)-3-pyridyl]oxy]-2,2-dimethyl-propanenitrile] | 0.00229 |
| Cc1cc(-c2ccn3nc(NC(=O)C4CC4)cc3c2)c(OCC2(O)CCNC2)cn1 (single isomer, unassigned) [Example 222, (*S)—N-[5-[5-[(3-hydroxypyrrolidin-3-yl)methoxy]-2-methyl-4-pyridyl]pyrazolo[1,5-a]pyridin-2-yl]cyclopropanecarboxamide] | 0.0119 |
| Cc1cc(Nc2cc3cc(-c4cc(OCC(F)(F)F)ncc4OC[C@H]4OCC[C@@H]4O)ccn3n2)nc(C)n1 [Example 499, (2R,3S)-2-[[4-[2-[(2,6-dimethylpyrimidin-4-yl)amino]pyrazolo[1,5-a]pyridin-5-yl]-6-(2,2,2-trifluoroethoxy)-3-pyridyl]oxymethyl]tetrahydrofuran-3-ol] | 0.00352 |
| Cc1cc(-c2ccn3nc(NC(=O)C4CC4)cc3c2)c(O[C@H]2CCN[C@@H](C(F)(F)F)C2)cn1 (single isomer, unassigned) [Example 446] | 0.00318 |
| Cc1cc(-c2cn3cc(NC(=O)C4CC4)nc3cn2)c(O[C@H]2CC[C@@H](O)CC2)cn1 [Example 655, N-[6-[5-(4-hydroxycyclohexoxy)-2-methyl-4-pyridyl]imidazo[1,2-a]pyrazin-2-yl]cyclopropanecarboxamide] | 0.0943 |
| Cc1cc(-c2ccn3nc(Nc4cc(C)nc(N5CCCC5)n4)cc3c2)c(OCC(C)(C)O)cn1 [Example 285, 2-methyl-1-[[6-methyl-4-[2-[(6-methyl-2-pyrrolidin-1-yl-pyrimidin-4-yl)amino]pyrazolo[1,5-a]pyridin-5-yl]-3-pyridyl]oxy]propan-2-ol] | 0.0109 |
| Cc1cc(-c2ccn3nc(Nc4cc(C)nc(C)n4)cc3c2)c(OC[C@H]2C[C@H](O)CO2)cn1 [Example 609, (3S,5R)-5-[[4-[2-[(2,6-dimethylpyrimidin-4-yl)amino]pyrazolo[1,5-a]pyridin-5-yl]-6-methyl-3-pyridyl]oxymethyl]tetrahydrofuran-3-ol] | 0.0797 |
| COc1cc(-c2ccn3nc(Nc4cc(C)nc(C)n4)cc3c2)c(OC[C@@H]2CNCCO2)cn1 [Example 496, N-(2,6-dimethylpyrimidin-4-yl)-5-[2-methoxy-5-[[(2S)-morpholin-2-yl]methoxy]-4-pyridyl]pyrazolo[1,5-a]pyridin-2-amine] | 0.00143 |
| CCNC(=O)c1c(OC)cc(Nc2cc3cc(-c4cc(C)ncc4O[C@H]4CC[C@H](O)CC4)ccn3n2)cc1OC [Example 243, N-ethyl-4-[[5-[5-(4-hydroxycyclohexoxy)-2-methyl-4-pyridyl]pyrazolo[1,5-a]pyridin-2-yl]amino]-2,6-dimethoxy-benzamide] | 0.0351 |
| CC(C)(C#N)COc1cnc(OC(F)F)cc1-c1ccn2nc(Nc3cnccn3)cc2c1 [Example 707, 3-[[6-(difluoromethoxy)-4-[2-(pyrazin-2-ylamino)pyrazolo[1,5-a]pyridin-5-yl]-3-pyridyl]oxy]-2,2-dimethyl-propanenitrile] | 0.0056 |
| CNC(=O)c1cc(C)nc(Nc2cc3cc(-c4cc(OC(F)F)ncc4OCC(C)(C)C#N)ccn3n2)c1 [Example 715, 2-[[5-[5-(2-cyano-2-methyl-propoxy)-2-(difluoromethoxy)-4-pyridyl]pyrazolo[1,5-a]pyridin-2-yl]amino]-N,6-dimethyl-pyridine-4-carboxamide] | 0.011 |
| CC(C)(C#N)COc1cnc(OC(F)F)cc1-c1ccn2nc(Nc3ccc(CN4CCOCC4)cn3)cc2c1 [Example 695, 3-[[6-(difluoromethoxy)-4-[2-[[5-(morpholinomethyl)-2-pyridyl]amino]pyrazolo[1,5-a]pyridin-5-yl]-3-pyridyl]oxy]-2,2-dimethyl-propanenitrile] | 0.117 |
| Cc1ccc(Nc2cc3cc(-c4cc(OC(F)F)ncc4OCC(C)(C)C#N)ccn3n2)nn1 [Example 711, 3-[[6-(difluoromethoxy)-4-[2-[(6-methylpyridazin-3-yl)amino]pyrazolo[1,5-a]pyridin-5-yl]-3-pyridyl]oxy]-2,2-dimethyl-propanenitrile] | 0.01 |
